The test system of the assay is Phakopsora pachyrhizi spores. Here is the method:
The leaves were examined with a stereoscope in order to identify those with a high degree of sporulation. Leaves were cut in standard size pieces.
Three different concentrations of SDC in distilled water were prepared having 5 ppm, 10 ppm and 15 ppm of silver, respectively. Ten ml of each solution was placed in separate test tubes. Ten selected pieces of soybean leaves were place in each test tube and stirred to suspend the spores present in the rust spots. The same procedure was used for a control, omitting the SDC in the solution. The leaves were left in the solution for two hours. For each of the product dilutions, ten Petri dishes containing water-agar substrate were inoculated with 100 spores each and maintained for 6 hours in the dark. Lactophenol dye was used to stain the mycelium growth, which was evaluated visually be microscope.
A second experiment was performed using the protocol above, with the following additions. Duplicate solutions were made using Well Water from Parana State, Southern Brazil (WW) and Product Water from Reverse Osmosis (PW). The surfactant sodium lauryl sulphate was added to each solution to a concentration of 0.01% w/w. Again, duplicate Petri dishes were inoculated with 100 spores for each concentration of SDC in the two water types and for […] the control.

The values that follow come from patent publication US20100099759A1, “AGRICULTURAL APPLICATIONS OF SILVER […]” (priority 2008, published 2010).

Like-named read-outs stand apart in the source and are kept apart here.

As to `O=C(O)CC(O)(CC(=O)O)C(=O)[O-].[Ag+]` [SDC, silver dihydrogen citrate], the “germination of spores from soybean leaves (summary in words)” value (5, 10 and 15 ppm silver in distilled water, well water and product water from reverse osmosis, with or without surfactant) is recorded as “almost totally inhibited”. The “% Germination” value runs as follows: (first experiment, 5 ppm silver in distilled water, 2 h in solution, 6 h in the dark, control 16) 5.0%; (first experiment, 10 ppm silver in distilled water, 2 h in solution, 6 h in the dark, control 16) 4.0%; (first experiment, 15 ppm silver in distilled water, 2 h in solution, 6 h in the dark, control 16) 5.0%; (second experiment, 5 ppm, Product Water from Reverse Osmosis (PW), 0.01% w/w sodium lauryl sulphate, control 40) 1.6%; (second experiment, 5 ppm, Well Water (WW), 0.01% w/w sodium lauryl sulphate, control 40) 1.1%; (second experiment, 10 ppm, Product Water from Reverse Osmosis (PW), 0.01% w/w sodium lauryl sulphate, control 40) 0.4%. The “% Germination” value by setting is: (second experiment, 10 ppm, Well Water (WW), 0.01% w/w sodium lauryl sulphate, control 40) 0.5%; (second experiment, 15 ppm, Product Water from Reverse Osmosis (PW), 0.01% w/w sodium lauryl sulphate, control 40) 0.5%; (second experiment, 15 ppm, Well Water (WW), 0.01% w/w sodium lauryl sulphate, control 40) 0.2%.
